What was measured:
[1] = system: 6-OHDA Parkinson's disease model with L-DOPA resistance; assay: 6-OHDA-induced rat rotation experiment, second stage: L-DOPA resistance (rotation response time); assay type: in vivo, Wistar rats
Source text: After long-term use of levodopa, patients with Parkinson's disease are prone to drug resistance (end-of-dose phenomenon). That is, the duration of its pharmaceutical effect tends to gradually become shorter (shortened opening period), its efficacy will become weaker and weaker, and the symptoms of the patients are becoming more and more uncontrollable. By the combined use with the test compound, the efficacy of levodopa can be restored for patients with Parkinson's disease in the off phase, who have already experienced the end-of-dose phenomenon. The rat model of Parkinson's disease was constructed by fixed-point injection of 6-hydroxydopamine (6-OHDA) to damage the substantia nigra striatum, and then the animals were administrated with levodopa (L-DOPA)/Benserazide (BID) for a long term (3-4 weeks as planned). […] On Day 22, at 60 minutes before the intraperitoneal injection of L-DOPA (20 mg/kg)/Benserazide (5 mg/kg), each test group was orally administered with the vehicle, test drug or positive drug. […] Four rotation tests were performed on Days 0, 7, 14 and 21 respectively. On the day of test, both the test drug and the control drug were administered orally only once. On this day, all test animals were also administered with L-DOPA (20 mg/kg)/Benserazide (5 mg/kg) once by intraperitoneal injection to induce rotation. In the second stage, the time for counting rotation with the rotation counter is 180 min. [table] In the second stage, after the intraperitoneal injection of L-DOPA/Benserazide to the experimental animals, the total number of rotations was recorded every 5 min, and the number of rotations per 5 min was calculated based on this, and the 5 min with the largest number of rotations was found from it, and the number of rotations within this 5 min was defined as the peak number of rotations. The first 5 minutes when the number of rotations increased to 20% of the peak number of rotations was the starting point of the rotation response time, and the first 5 minutes when the number of rotations dropped to 20% of the peak number of rotations was the terminating point of the rotation response time. The time between the starting point and the terminating point was regarded as the rotation response time. The test results are represented as “mean±standard deviation”. The data was statistically analyzed by the SPSS16.0 software package. One-way ANOVA, paired sample T test and independent sample T test were used for comparison, with P<0.05 showing a statistical difference.

human ADORA1 = biological target: T1, human ADORA1 (Homo sapiens, UniProt P30542); assay: Calcium flow test (FLIPR), ADORA1 stably transfected HEK293; assay type: cell-based; details: Table 9
T1 construct: host or cells: HEK293
Source text: The binding of the A2AR agonist to A2AR could activate a downstream pathway to increase the intracellular calcium ion concentration. The antagonist would competitively occupy the binding site where the agonist binds to A2AR, thereby interrupting the intracellular signal transduction and leading to a change in the intracellular calcium ion concentration. By detecting the strength of the intracellular calcium ion signal, the antagonistic activities of the compound on human ADORA1, ADORA2A, ADORA2B and ADORA3 adenosine receptors were determined. […]
7) The FLIPR instrument software was operated; following a set program, 10 μL of experimental buffer salt solution was added to the cell plate; and fluorescence signals were read. Then, 10 μL of the reference compound of agonist at a predetermined concentration was added to the cell plate, and the fluorescence signals were read. After reading, data was exported by means of “Max-Min” and “Read 91 to Maximum allowed” in the software, the EC80 of each cell line was calculated, and an agonist with a concentration of 6×EC80 was prepared.
9) The FLIPR instrument software was operated; following a set program, 10 μL of the test compound and 10 μL of the reference compound were added at a predetermined concentration to the cell plate; and the fluorescence signals were read. […]

[2] = Pharmacokinetic evaluation of Compound 22 in female BALB/c mice in different vehicles; assay type: in vivo; details: mouse, plasma, po, 100 mg/kg, 100 mg/kg p.o. single; for half-life: read-out: T½ (converted)
Description: BALB/c mice, female, 7-9 weeks old (the age of mice at the start of the experiment), weight: 19.2-22.1 g, […] (34 mice plus another 10 surplus mice). They were purchased from Shanghai Lingchang Biotechnology Co., Ltd. (LC), with animal certificate number: 2013001835211. Rearing environment: SPF level.
After single administration, plasma was collected from each group at 0.25 h, 0.5 h, 1 h, 2 h, 4 h, 6 h, 8 h and 24 h, with 3 mice at each time point, and the experiment was terminated after 24h. 10 remaining mice were used to collect blank plasma.

[3] = Pharmacokinetics of Compound 40 and benzene sulfonate thereof in ICR mice, PO; details: mouse, in vivo, PO 100 mg/kg (based on free base), 40% Hp-β-CD
[4] = Group 3 (7.5 mg/kg, Day 22) + L-DOPA/Benserazide, before test drug
[5] = Group 4 (15 mg/kg, Day 22) + L-DOPA/Benserazide, before test drug
[6] = Group 6 (30 mg/kg, Day 22) + L-DOPA/Benserazide, before test drug
[7] = Group 7: 5 or 10 mg/kg oral BID*21 + L-DOPA/Benserazide
[8] = Group 1, vehicle 40% PEG400/60% water
[9] = Group 2, vehicle 40% (2-hydroxypropyl)-β-cyclodextrin
[10] = Group 5 (10 mg/kg, Day 22) + L-DOPA/Benserazide, before test drug
[11] = Group 8: 10 mg/kg oral BID*21 + L-DOPA/Benserazide

T1 sequence (P30542 whole entry): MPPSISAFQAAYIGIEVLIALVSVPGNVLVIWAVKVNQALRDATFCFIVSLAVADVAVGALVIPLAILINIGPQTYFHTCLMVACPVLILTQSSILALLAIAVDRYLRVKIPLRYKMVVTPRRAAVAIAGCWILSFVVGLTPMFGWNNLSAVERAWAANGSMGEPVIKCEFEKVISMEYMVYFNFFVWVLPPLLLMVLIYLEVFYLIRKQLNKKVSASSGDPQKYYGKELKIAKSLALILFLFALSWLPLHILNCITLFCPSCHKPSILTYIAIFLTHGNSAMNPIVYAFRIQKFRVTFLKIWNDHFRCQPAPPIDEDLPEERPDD

CC(=O)O.Nc1nc(NCCc2ccc(NC3COC3)cc2)nc2nc(-c3ccco3)nn12 [Acetate of Compound 22, 2-(furan-2-yl)-N5-(4-(oxetane-3-ylamino)phenethyl)-[1,2,4]triazolo[1,5-a][1,3,5]triazine-5,7-diamine acetate]
Rotational reaction time - Day 0 [1, 4]: 129.0 ± 9.1 min
Rotational reaction time - Day 7 [1, 4]: 110.0 ± 27.1 min
Rotational reaction time - Day 14 [1, 4]: 109.5 ± 11.7 min
Rotational reaction time - Day 21 [1, 4]: 111.5 ± 14.0 min
Rotational reaction time - Day 22 ([1]; Group 3: 7.5 mg/kg single oral Day 22 + L-DOPA/Benserazide): 133.5 ± 30.0^ min
Rotational reaction time - Day 0 [1, 5]: 128.9 ± 11.7 min
Rotational reaction time - Day 7 [1, 5]: 113.3 ± 13.0 min
Rotational reaction time - Day 14 [1, 5]: 111.1 ± 17.8 min
Rotational reaction time - Day 21 [1, 5]: 97.5 ± 42.7 min
Rotational reaction time - Day 22 ([1]; Group 4: 15 mg/kg single oral Day 22 + L-DOPA/Benserazide): 146.3 ± 37.0& min
Rotational reaction time - Day 0 [1, 6]: 135.0 ± 13.1 min
Rotational reaction time - Day 7 [1, 6]: 121.0 ± 13.3 min
Rotational reaction time - Day 14 [1, 6]: 110.6 ± 21.9 min
Rotational reaction time - Day 21 [1, 6]: 104.4 ± 23.0 min
Rotational reaction time - Day 22 ([1]; Group 6: 30 mg/kg single oral Day 22 + L-DOPA/Benserazide): 153.9 ± 22.7& min
Rotational reaction time - Day 0 [1, 7]: 150.5 ± 11.9 min
Rotational reaction time - Day 7 [1, 7]: 145.6 ± 3.0 min
Rotational reaction time - Day 14 [1, 7]: 133.9 ± 8.9 min
Rotational reaction time - Day 21 [1, 7]: 128.3 ± 13.5 min
Effect on body weight of the test animal ([1]; during the test period, vs model control group): no significant effect on the body weight

Nc1nc(NCCc2ccc(NC3COC3)cc2)nc2nc(-c3ccco3)nn12 [Compound 22, 2-(furan-2-yl)-N5-(4-(oxetan-3-ylamino)phenethyl)-[1,2,4]triazolo[1,5-a][1,3,5]triazine-5,7-diamine]
IC50 (human ADORA1): 218 ± 148 nM
AUC(0-inf) [2, 8]: 16100 ng·h/mL
AUC(0-t) [2, 8]: 15900 ng·h/mL
Cmax [2, 8]: 2080 ng/mL
Tmax [2, 8]: 1 h
half-life [2, 8]: 3.04 h
AUC(0-inf) [2, 9]: 28500 ng·h/mL
AUC(0-t) [2, 9]: 28400 ng·h/mL
Cmax [2, 9]: 5580 ng/mL
Tmax [2, 9]: 0.5 h
half-life [2, 9]: 2.66 h

Cn1nnc(-c2ccc(CCNc3nc(N)n4nc(-c5ccco5)nc4n3)cc2)n1 [Compound 40, N5-(4-(2-methyl-2H-tetrazol-5-yl)phenethyl)-2-(furan-2-yl)-[1,2,4]triazolo[1,5-a][1,3,5]triazine-5,7-diamine]
IC50 (human ADORA1): 228 ± 105 nM
AUC(0-t) [3]: 11900 ng·h/mL
Cmax [3]: 2900 ng/mL
Tmax [3]: 0.5 h
AUC(0-inf) ([3]; read-out: AUCINF—pred): 12100 ng·h/mL
half-life ([3]; read-out: T½ (converted)): 4.27 h

CCn1c(=O)c2c(nc(/C=C/c3ccc(OC)c(OC)c3)n2C)n(CC)c1=O [Istradefylline, reference compound]
Rotational reaction time - Day 0 [1, 10]: 116.1 ± 34.4 min
Rotational reaction time - Day 7 [1, 10]: 126.7 ± 10.6 min
Rotational reaction time - Day 14 [1, 10]: 116.3 ± 13.8 min
Rotational reaction time - Day 21 [1, 10]: 114.4 ± 15.9 min
Rotational reaction time - Day 22 ([1]; Group 5: 10 mg/kg single oral Day 22 + L-DOPA/Benserazide): 150.6 ± 37.8& min
Rotational reaction time - Day 0 [1, 11]: 161.5 ± 14.2 min
Rotational reaction time - Day 7 [1, 11]: 125.0 ± 23.5 min

Reference: US20230048888A1, “USE OF TRIAZOLOTRIAZINE DERIVATIVE IN TREATMENT OF DISEASES” (ZHEJIANG VIMGREEN PHARMACEUTICALS, LTD., priority 2019, published 2023)
